Results published in ChEMBL document CHEMBL1201862, “PubChem BioAssay data set” (2004).
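Five concentrations, 48 hours, 96-well plates. Here, GI50 denotes the concentration required for 50% inhibition of growth.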 Calls of active or inactive are those of the source. Rule as the data show it: active = GI50 up to about 1.1 µM and inactive = higher.

Experiments:
Assay in all cases: inhibition of tumour cell growth, NCI panel, 48 h
Malme-3M = system: Malme-3M
T47D = system: T47D
HT-29 = system: HT-29
HCT-15 = system: HCT-15
MDA-N = system: MDA-N
SF-295 = system: SF-295
786-0 = system: 786-0
SN12C = system: SN12C
MCF7 = system: MCF7
OVCAR-4 = system: OVCAR-4
UO-31 = system: UO-31
HL-60 = system: HL-60
TK-10 = system: TK-10
EKVX = system: EKVX
SNB-75 = system: SNB-75
CAKI-1 = system: CAKI-1
HCT-116 = system: HCT-116
BT-549 = system: BT-549
COLO 205 = system: COLO 205
CCRF-CEM = system: CCRF-CEM

| SMILES | GI50 (Malme-3M) | GI50 (T47D) | GI50 (HT-29) | GI50 (HCT-15) | GI50 (MDA-N) | GI50 (SF-295) | GI50 (786-0) | GI50 (SN12C) | GI50 (MCF7) | GI50 (OVCAR-4) | GI50 (UO-31) | GI50 (HL-60) | GI50 (TK-10) | GI50 (EKVX) | GI50 (SNB-75) | GI50 (CAKI-1) | GI50 (HCT-116) | GI50 (BT-549) | GI50 (COLO 205) | GI50 (CCRF-CEM) |
| --- | --- | --- | --- | --- | --- | --- | --- | --- | --- | --- | --- | --- | --- | --- | --- | --- | --- | --- | --- | --- |
| COC(=O)C(=O)C(C(=O)C(=O)Nc1ccccc1C(C)=O)c1nc2ccc(C(=O)c3ccccc3)cc2nc1O (stereo not given) | > 100 µM (inactive) | 56.4 µM (inactive) | 77.8 µM (inactive) | 74 µM | 40.2 µM (inactive) | 45.1 µM (inactive) | > 100 µM (inactive) | > 100 µM (inactive) | 19.4 µM (inactive) | > 100 µM (inactive) | 26.7 µM (inactive) | > 100 µM (inactive) | > 100 µM (inactive) | 92.5 µM (inactive) | 32.7 µM (inactive) | 25.9 µM (inactive) | > 100 µM (inactive) | > 100 µM (inactive) | – | – |
| O=c1oc2ccccc2cc1-c1cn2c(n1)sc1ccccc12 | – | > 100 µM (inactive) | 1.15 µM (inactive) | > 100 µM | > 100 µM (inactive) | > 100 µM (inactive) | > 100 µM (inactive) | > 100 µM (inactive) | 4.75 µM (inactive) | – | > 100 µM (inactive) | > 100 µM (inactive) | > 100 µM (inactive) | 2.33 µM (inactive) | > 100 µM (inactive) | > 100 µM (inactive) | 75.5 µM (inactive) | > 100 µM (inactive) | > 100 µM (inactive) | > 100 µM (inactive) |
| Cc1cc2nc(C#N)c(N3CCN(c4ccc([N+](=O)[O-])cc4)CC3)nc2cc1C | > 100 µM (inactive) | 66.2 µM (inactive) | > 88.5 µM (inactive) | > 100 µM | > 79.3 µM (inactive) | > 50.5 µM (inactive) | 52.7 µM (inactive) | > 92.7 µM (inactive) | > 72.8 µM (inactive) | 73.6 µM (inactive) | > 93.8 µM (inactive) | – | > 66.5 µM (inactive) | > 100 µM (inactive) | 63.5 µM (inactive) | > 70 µM (inactive) | > 68.4 µM (inactive) | > 100 µM (inactive) | > 100 µM (inactive) | > 100 µM (inactive) |
| O=C1N=C(c2ccccc2)O/C1=C\c1ccccc1 | > 100 µM (inactive) | > 100 µM (inactive) | > 100 µM (inactive) | > 100 µM | > 100 µM (inactive) | > 100 µM (inactive) | > 100 µM (inactive) | > 100 µM (inactive) | > 100 µM (inactive) | > 100 µM (inactive) | > 100 µM (inactive) | > 100 µM (inactive) | > 100 µM (inactive) | – | > 100 µM (inactive) | > 100 µM (inactive) | > 100 µM (inactive) | > 100 µM (inactive) | > 100 µM (inactive) | – |
| c1ccc2c(c1)nc1n2CSCC1 | – | > 100 µM (inactive) | > 100 µM (inactive) | > 100 µM | > 100 µM (inactive) | > 100 µM (inactive) | > 100 µM (inactive) | > 100 µM (inactive) | > 100 µM (inactive) | > 100 µM (inactive) | > 100 µM (inactive) | > 100 µM (inactive) | > 100 µM (inactive) | > 100 µM (inactive) | > 100 µM (inactive) | > 100 µM (inactive) | > 100 µM (inactive) | > 100 µM (inactive) | > 100 µM (inactive) | > 100 µM (inactive) |
| CC(=O)/C(=C/n1c(=S)sc2ccccc21)C(=O)Nc1ccccc1C | – | 40.9 µM (inactive) | > 100 µM (inactive) | > 100 µM | > 100 µM (inactive) | > 100 µM (inactive) | > 100 µM (inactive) | > 100 µM (inactive) | > 100 µM (inactive) | > 100 µM (inactive) | 79.6 µM (inactive) | 31.6 µM (inactive) | > 100 µM (inactive) | > 100 µM (inactive) | > 100 µM (inactive) | 48 µM (inactive) | > 100 µM (inactive) | > 100 µM (inactive) | > 100 µM (inactive) | – |
